# Reference: patent US10376520B2, “Methods for the treatment of cardiovascular disorders” (Galapagos NV, priority 2015, dated 2019)
# What was measured:
# [1] = test system: RA patients; experiment: Triglycerides level (Selectra autoanalyzer), Study 4; type: in vivo, human; conditions: for Triglycerides level, 4 weeks CFB: 4 weeks change from baseline
# Method: Randomized double-blind, placebo-controlled add on study in subjects with active RA who have an inadequate response to MTX monotherapy, in combination with methotrexate, administered for 4 weeks in the treatment of subjects with active rheumatoid arthritis who have an inadequate response to methotrexate alone.
# Compound 1 (dosed as a [Compound 1:HCl:3H2O]) capsules administered orally in 30 mg, 75 mg, 150 mg, or 300 mg doses per day for 4 weeks.
# Triglycerides, [HDL] cholesterol, and plasma cholesterol were measured on the Selectra autoanalyzer (Sopachem BV, 44-RI Straat 33, 4051 AP Ochten, The Netherlands). All assays were commercially available from DiaSys Diagnostic Systems GmbH, Alte Strasse 9, 65558 Holzheim, Germany.
# [2] = test system: Subjects With Active Crohn's Disease; experiment: Atherogenic index, Study 5 (Crohn's disease); type: in vivo, human; conditions: for Atherogenic index Mean CFB - 10 weeks results / Atherogenic index Mean percentage CFB - 10 weeks results / Atherogenic index Median CFB - 10 weeks results: 200 mg q.d.
# Source text: As used herein, the term ‘atherogenic index’ refers to
# This is a double-blind, randomized, placebo-controlled, multi-centre Phase 2 study to investigate the efficacy and safety of Compound 1 administered once daily for the treatment of active CD with evidence of mucosal ulceration. The pharmacokinetics (including a PK substudy) and pharmacodynamics of Compound 1 and metabolite in CD will also be characterised.
# A total of 180 eligible subjects will be randomized to receive Compound 1 or placebo in addition to their stable background treatment (eg, corticosteroids, aminosalicylates, or CD-related antibiotics). The study will consist of 2 parts, with total treatment duration of 20 weeks. Randomization in Part 1 will be stratified according the subject's previous anti-TNF exposure/response, CRP level at Screening, and oral corticosteroid use at visit Day −1.
# After the first 10 weeks of treatment in Part 1, patients will be re-randomized for Part 2 as shown in the diagram below and will be stratified according to the subject's clinical response, previous anti-TNF exposure/response, and oral corticosteroid use at visit Day −1.
# The atherogenic index has been identified to be a good predictor of cardiovascular disorders risks and is calculated as follows: […]
# [3] = 200 mg q.d. continued week 10 to 20, week 2
# [4] = 200 mg q.d. continued week 10 to 20, week 4
# [5] = 200 mg q.d. continued week 10 to 20, week 6
# [6] = 200 mg q.d. continued week 10 to 20, week 10
# [7] = 200 mg q.d. continued week 10 to 20, week 12
# [8] = 200 mg q.d. continued week 10 to 20, week 16
# [9] = 200 mg q.d. continued week 10 to 20, week 20
# [10] = 200 mg q.d. week 0 to 10, to 100 mg q.d. week 10 to 20, week 2
# [11] = 200 mg q.d. week 0 to 10, to 100 mg q.d. week 10 to 20, week 4
# [12] = 200 mg q.d. week 0 to 10, to 100 mg q.d. week 10 to 20, week 6
# [13] = 200 mg q.d. week 0 to 10, to 100 mg q.d. week 10 to 20, week 10
# [14] = 200 mg q.d. week 0 to 10, to 100 mg q.d. week 10 to 20, week 12
# [15] = 200 mg q.d. week 0 to 10, to 100 mg q.d. week 10 to 20, week 16
# [16] = 200 mg q.d. week 0 to 10, to 100 mg q.d. week 10 to 20, week 20
# [17] = 200 mg q.d. week 0 to 10, to placebo week 10 to 20, week 2
# [18] = 200 mg q.d. week 0 to 10, to placebo week 10 to 20, week 4
# [19] = 200 mg q.d. week 0 to 10, to placebo week 10 to 20, week 6
# [20] = 200 mg q.d. week 0 to 10, to placebo week 10 to 20, week 10
# [21] = 200 mg q.d. week 0 to 10, to placebo week 10 to 20, week 12
# [22] = 200 mg q.d. week 0 to 10, to placebo week 10 to 20, week 16
# [23] = 200 mg q.d. week 0 to 10, to placebo week 10 to 20, week 20
# [24] = placebo week 0 to 10, to 100 mg q.d. week 10 to 20, week 12
# [25] = placebo week 0 to 10, to 100 mg q.d. week 10 to 20, week 16
# [26] = placebo week 0 to 10, to 100 mg q.d. week 10 to 20, week 20
smiles,measurement,setting,value
"O=C(Nc1nc2cccc(-c3ccc(CN4CCS(=O)(=O)CC4)cc3)n2n1)C1CC1 [Compound 1, cyclopropanecarboxylic acid {5-[4-(1,1-dioxo-thiomorpholin-4-ylmethyl)-phenyl]-[1,2,4]triazolo[1,5-a]pyridin-2yl}-amide]","Triglycerides level, 4 weeks CFB",[1]; 30 mg q.d.,51.7%
same,"Triglycerides level, Baseline",[1]; 30 mg q.d.,1.2 mM
same,"Triglycerides level, week 4",[1]; 30 mg q.d.,1.7 mM
same,"Triglycerides level, 4 weeks CFB",[1]; 75 mg q.d.,6.6%
same,"Triglycerides level, Baseline",[1]; 75 mg q.d.,1 mM
same,"Triglycerides level, week 4",[1]; 75 mg q.d.,1.1 mM
same,"Triglycerides level, 4 weeks CFB",[1]; 150 mg q.d.,93.6%
same,"Triglycerides level, Baseline",[1]; 150 mg q.d.,1.4 mM
same,"Triglycerides level, week 4",[1]; 150 mg q.d.,2.1 mM
same,"Triglycerides level, 4 weeks CFB",[1]; 300 mg q.d.,23.3%
same,"Triglycerides level, Baseline",[1]; 300 mg q.d.,1.3 mM
same,"Triglycerides level, week 4",[1]; 300 mg q.d.,1.4 mM
same,Atherogenic index Mean percentage CFB - 20 weeks results,[2]; [3],−6.93%
same,Atherogenic index Median CFB - 20 weeks results,[2]; [3],-0.25 mmol/L
same,Atherogenic index Mean percentage CFB - 20 weeks results,[2]; [4],−6.67%
same,Atherogenic index Median CFB - 20 weeks results,[2]; [4],-0.21 mmol/L
same,Atherogenic index Mean percentage CFB - 20 weeks results,[2]; [5],−8.51%
same,Atherogenic index Median CFB - 20 weeks results,[2]; [5],-0.22 mmol/L
same,Atherogenic index Mean percentage CFB - 20 weeks results,[2]; [6],−3.49%
same,Atherogenic index Median CFB - 20 weeks results,[2]; [6],-0.13 mmol/L
same,Atherogenic index Mean percentage CFB - 20 weeks results,[2]; [7],−1.27%
same,Atherogenic index Median CFB - 20 weeks results,[2]; [7],-0.13 mmol/L
same,Atherogenic index Mean percentage CFB - 20 weeks results,[2]; [8],−0.22%
same,Atherogenic index Median CFB - 20 weeks results,[2]; [8],-0.06 mmol/L
same,Atherogenic index Mean percentage CFB - 20 weeks results,[2]; [9],3.38%
same,Atherogenic index Median CFB - 20 weeks results,[2]; [9],0.01 mmol/L
same,Atherogenic index Mean percentage CFB - 20 weeks results,[2]; [10],−12.02%
same,Atherogenic index Median CFB - 20 weeks results,[2]; [10],-0.37 mmol/L
same,Atherogenic index Mean percentage CFB - 20 weeks results,[2]; [11],−12.95%
same,Atherogenic index Median CFB - 20 weeks results,[2]; [11],-0.38 mmol/L
same,Atherogenic index Mean percentage CFB - 20 weeks results,[2]; [12],−13.82%
same,Atherogenic index Median CFB - 20 weeks results,[2]; [12],-0.48 mmol/L
same,Atherogenic index Mean percentage CFB - 20 weeks results,[2]; [13],−11.54%
same,Atherogenic index Median CFB - 20 weeks results,[2]; [13],-0.48 mmol/L
same,Atherogenic index Mean percentage CFB - 20 weeks results,[2]; [14],−5.12%
same,Atherogenic index Median CFB - 20 weeks results,[2]; [14],-0.25 mmol/L
same,Atherogenic index Mean percentage CFB - 20 weeks results,[2]; [15],−4.54%
same,Atherogenic index Median CFB - 20 weeks results,[2]; [15],-0.15 mmol/L
same,Atherogenic index Mean percentage CFB - 20 weeks results,[2]; [16],−8.14%
same,Atherogenic index Median CFB - 20 weeks results,[2]; [16],-0.39 mmol/L
same,Atherogenic index Mean percentage CFB - 20 weeks results,[2]; [17],−7.38%
same,Atherogenic index Median CFB - 20 weeks results,[2]; [17],-0.31 mmol/L
same,Atherogenic index Mean percentage CFB - 20 weeks results,[2]; [18],−10.10%
same,Atherogenic index Median CFB - 20 weeks results,[2]; [18],-0.29 mmol/L
same,Atherogenic index Mean percentage CFB - 20 weeks results,[2]; [19],−2.55%
same,Atherogenic index Median CFB - 20 weeks results,[2]; [19],-0.14 mmol/L
same,Atherogenic index Mean percentage CFB - 20 weeks results,[2]; [20],−5.14%
same,Atherogenic index Median CFB - 20 weeks results,[2]; [20],-0.19 mmol/L
same,Atherogenic index Mean percentage CFB - 20 weeks results,[2]; [21],9.34%
same,Atherogenic index Median CFB - 20 weeks results,[2]; [21],0.14 mmol/L
same,Atherogenic index Mean percentage CFB - 20 weeks results,[2]; [22],19.14%
same,Atherogenic index Median CFB - 20 weeks results,[2]; [22],0.35 mmol/L
same,Atherogenic index Mean percentage CFB - 20 weeks results,[2]; [23],19.82%
same,Atherogenic index Median CFB - 20 weeks results,[2]; [23],0.38 mmol/L
same,Atherogenic index Mean CFB - 10 weeks results,[2]; week 2,-0.31 mmol/L
same,Atherogenic index Mean percentage CFB - 10 weeks results,[2]; week 2,−8.20%
same,Atherogenic index Median CFB - 10 weeks results,[2]; week 2,-0.31 mmol/L
same,Atherogenic index Mean CFB - 10 weeks results,[2]; week 4,-0.33 mmol/L
same,Atherogenic index Mean percentage CFB - 10 weeks results,[2]; week 4,−8.79%
same,Atherogenic index Median CFB - 10 weeks results,[2]; week 4,-0.28 mmol/L
same,Atherogenic index Mean CFB - 10 weeks results,[2]; week 6,-0.32 mmol/L
same,Atherogenic index Mean percentage CFB - 10 weeks results,[2]; week 6,−8.69%
same,Atherogenic index Median CFB - 10 weeks results,[2]; week 6,-0.29 mmol/L
same,Atherogenic index Mean CFB - 10 weeks results,[2]; week 10,-0.25 mmol/L
same,Atherogenic index Mean percentage CFB - 10 weeks results,[2]; week 10,−5.98%
same,Atherogenic index Median CFB - 10 weeks results,[2]; week 10,-0.21 mmol/L
same,Atherogenic index Mean percentage CFB - 20 weeks results,[2]; [24],0.84%
same,Atherogenic index Median CFB - 20 weeks results,[2]; [24],-0.10 mmol/L
same,Atherogenic index Mean percentage CFB - 20 weeks results,[2]; [25],−0.97%
same,Atherogenic index Median CFB - 20 weeks results,[2]; [25],-0.25 mmol/L
same,Atherogenic index Mean percentage CFB - 20 weeks results,[2]; [26],3.17%
same,Atherogenic index Median CFB - 20 weeks results,[2]; [26],-0.10 mmol/L
